Literature values in patent publication US20240165002A1, “Compositions Incorporating Avobenzone Complexes” (University of Cincinnati, priority 2022, published 2024).

Assays:
[1] = at 360 nm

In the case of `COc1ccc(C(=O)CC(=O)c2ccc(C(C)(C)C)cc2)cc1` [Avobenzone, 1-(4-methoxyphenyl)-3-(4-tertbutylphenyl)-propane-1,3-dione], the molar absorption coefficient [1] is given as 33,756 L/(mol·cm), the “duration of photoprotection once exposed to sun” value (once exposed to sun) is given as 30 min and the photostability (upon exposure to light, keto-enol tautomerization) is given as “poor photostability”.
